Test results published in US11285127B2, “Compositions and methods for lowering triglycerides without raising LDL-C levels in a subject on concomitant statin therapy” (Amarin Pharmaceuticals Ireland Limited, priority 2013, dated 2022).

System: patients with fasting triglyceride levels >200 mg/dl and <500 mg/dl despite statin therapy
Assay: 12-week study: plasma fatty acids (EPA concentration, FADI ratios) by gas chromatography/flame ionization detection
Assay type: in vivo, human
Conditions: 4 g/day, placebo-adjusted, 12 weeks
Experimental: A multi-center, placebo-controlled, randomized, double-blind, 12-week study was performed to evaluate the efficacy and safety of >96% E-EPA in patients with fasting triglyceride levels >200 mg/dl and <500 mg/dl despite statin therapy (the mean of two qualifying entry values needed to be >185 mg/dl and at least one of the values needed to be >200 mg/dl). The primary objective of the study was to determine the efficacy of >96% E-EPA 2 g daily and 4 g daily, compared to placebo, in lowering fasting TG levels in patients with high risk for cardiovascular disease and with fasting TG levels 200 mg/dl and <500 mg/dl, despite treatment to LDL-C goal on statin therapy. The secondary objectives of this study were the following: • 1. To determine the safety and tolerability of >96% E-EPA 2 g daily and 4 g daily; • 2. To determine the effect of >96% E-EPA on lipid and apolipoprotein profiles including total cholesterol (TC), non-high-density lipoprotein cholesterol (non-HDL-C), low density lipoprotein cholesterol (LDL-C), high density lipoprotein cholesterol (HDL-C), and […]; • 3. To determine the effect of >96% E-EPA on lipoprotein associated phospholipase A2 (Lp-PLA2) from baseline to week 12; • 4. To determine the effect of >96% E-EPA on low-density lipoprotein (LDL) particle number and size; • 5. […]

For CC/C=C\C/C=C\C/C=C\C/C=C\C/C=C\CCCC(=O)OCC [AMR101, ethyl eicosapentaenoate], the “FADI-16 (Palmitoleic acid/Palmitic acid, C16:1/C16:0), % Change, Plasma” value was −6.8% and the “FADI-18 (Oleic acid/Stearic Acid, C18:1/C18:0), % Change, Plasma” value was −9.8%.
